This is an account of results in patent publication US20230340012A1, “NATURAL AND SYNTHETIC COMPOUNDS FOR TREATING CANCER AND OTHER DISEASES” (PACIFIC ARROW LIMITED, priority 2009, published 2023).

For this data set, the system named is cancer cells. The experiment in a line: MTT cytotoxic assay of esterification products (Cytotoxicity activity). The data set is classed as cell-based, human. The following applies: esterification products isolated with HPLC; graded strong / moderate / weak. The essentials:
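Cytotoxicity was read by MTT (Carmichael method, modified), with cells seeded 24 h ahead of treatment. Sixteen human cancer lines spanning bone, lung, bladder, ovary, colon, pancreas, prostate, skin, mouth, kidney, breast, liver, brain, leukemia and cervix were used. Test samples were acyl chloride esterification products of triterpenes, as mixtures or HPLC-purified compounds.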
A general note: Formazan colour is commonly taken as a measure of viable cells.

Consider `C=CCCC(=O)OCC12C(O)CC3(C)C(=CCC4C5(C)CCC(OC(=O)CCC=C)C(C)(COC(=O)C(C)=CC)C5CCC43C)C1CC(C)(C)C(O)C2O` (centres unmarked) [Tig—Pen—4], for which the Cytotoxicity activity result is listed as “moderate”.

For the compound `C=CCCC(=O)OC1C(O)C2(CO)C(O)CC3(C)C(=CCC4C5(C)CCC(O)C(C)(COC(=O)C(C)=CC)C5CCC43C)C2CC1(C)C` (centres unmarked) [Tig—Pen—5], the Cytotoxicity activity entry is given as “moderate”.

Regarding `C=CCCC(=O)OC1C(O)C(C)(C)CC2C3=CCC4C5(C)CCC(O)C(C)(COC(=O)C(C)=CC)C5CCC4(C)C3(C)CC(O)C21CO` (centres unmarked) [Tig—Pen—6], the Cytotoxicity activity entry is “moderate”.

In the case of `CC=C(C)C(=O)OCC1(C)C(O)CCC2(C)C1CCC1(C)C2CC=C2C3CC(C)(C)C(OC(C)=O)C(OC(C)=O)C3(COC(=O)C(C)=CC)C(O)CC21C` (centres unmarked) [Tig—R—Acy—1], the Cytotoxicity activity result is “weak”.

Consider `CC=C(C)C(=O)OCC1(C)C(O)CCC2(C)C1CCC1(C)C2CC=C2C3CC(C)(C)C(OC(C)=O)C(O)C3(COC(=O)C(C)=CC)C(O)CC21C` (centres unmarked) [Tig—R—Acy—2], for which the Cytotoxicity activity result is “moderate”.

As to `CC=C(C)C(=O)OCC1(C)C(O)CCC2(C)C1CCC1(C)C2CC=C2C3CC(C)(C)C(O)C(OC(C)=O)C3(COC(=O)C(C)=CC)C(O)CC21C` (centres unmarked) [Tig—R—Acy—3], the Cytotoxicity activity entry is “moderate”.

For `CC=C(C)C(=O)OCC1(C)C(OC(C)=O)CCC2(C)C1CCC1(C)C2CC=C2C3CC(C)(C)C(O)C(O)C3(COC(=O)C(C)=CC)C(O)CC21C` (centres unmarked) [Tig—R—Acy—4], the Cytotoxicity activity result is listed as “moderate”.

For `CC=C(C)C(=O)OCC1(C)C(OC(C)=O)CCC2(C)C1CCC1(C)C2CC=C2C3CC(C)(C)C(OC(C)=O)C(O)C3(COC(=O)C(C)=CC)C(O)CC21C` (centres unmarked) [Tig—R—Acy—5], the Cytotoxicity activity entry is “weak”.

Take `CC=C(C)C(=O)OCC1(C)C(OC(C)=O)CCC2(C)C1CCC1(C)C2CC=C2C3CC(C)(C)C(O)C(OC(C)=O)C3(COC(=O)C(C)=CC)C(O)CC21C` (centres unmarked) [Tig—R—Acy—6]: the Cytotoxicity activity entry was “weak”.

As to `CC=C(C)C(=O)OCC1(C)C(O)CCC2(C)C1CCC1(C)C2CC=C2C3CC(C)(C)C(OC(=O)C(C)=CC)C(OC(=O)C(C)=CC)C3(COC(=O)C(C)=CC)C(O)CC21C` (centres unmarked) [Tig—R—Ang—1], the Cytotoxicity activity result was “weak”.

Regarding `CC=C(C)C(=O)OCC1(C)C(OC(=O)C(C)=CC)CCC2(C)C1CCC1(C)C2CC=C2C3CC(C)(C)C(OC(=O)C(C)=CC)C(O)C3(COC(=O)C(C)=CC)C(O)CC21C` (centres unmarked) [Tig—R—Ang—5], the Cytotoxicity activity entry is recorded as “weak”.

Take `CC=C(C)C(=O)OCC1(C)C(OC(=O)C(C)=CC)CCC2(C)C1CCC1(C)C2CC=C2C3CC(C)(C)C(O)C(OC(=O)C(C)=CC)C3(COC(=O)C(C)=CC)C(O)CC21C` (centres unmarked) [Tig—R—Ang—6]: the Cytotoxicity activity result is recorded as “weak”.

In the case of `CC=C(C)C(=O)OCC1(C)C(O)CCC2(C)C1CCC1(C)C2CC=C2C3CC(C)(C)C(OC(=O)C=Cc4ccccc4)C(OC(=O)C=Cc4ccccc4)C3(COC(=O)C(C)=CC)C(O)CC21C` (centres unmarked) [Tig—R—Cin—1], the Cytotoxicity activity entry was “weak”.

Take `CC=C(C)C(=O)OCC1(C)C(O)CCC2(C)C1CCC1(C)C2CC=C2C3CC(C)(C)C(OC(=O)C=Cc4ccccc4)C(O)C3(COC(=O)C(C)=CC)C(O)CC21C` (centres unmarked) [Tig—R—Cin—2]: the Cytotoxicity activity entry is on record as “moderate”.

For `CC=C(C)C(=O)OCC1(C)C(O)CCC2(C)C1CCC1(C)C2CC=C2C3CC(C)(C)C(O)C(OC(=O)C=Cc4ccccc4)C3(COC(=O)C(C)=CC)C(O)CC21C` (centres unmarked) [Tig—R—Cin—3], the Cytotoxicity activity result is given as “moderate”.

Turning to `CC=C(C)C(=O)OCC1(C)C(OC(=O)C=Cc2ccccc2)CCC2(C)C1CCC1(C)C2CC=C2C3CC(C)(C)C(O)C(O)C3(COC(=O)C(C)=CC)C(O)CC21C` (centres unmarked) [Tig—R—Cin—4], the Cytotoxicity activity entry was “moderate”.

Turning to `CC=C(C)C(=O)OCC1(C)C(OC(=O)C=Cc2ccccc2)CCC2(C)C1CCC1(C)C2CC=C2C3CC(C)(C)C(OC(=O)C=Cc4ccccc4)C(O)C3(COC(=O)C(C)=CC)C(O)CC21C` (centres unmarked) [Tig—R—Cin—5], the Cytotoxicity activity result is “weak”.

For the compound `CC=C(C)C(=O)OCC1(C)C(OC(=O)C=Cc2ccccc2)CCC2(C)C1CCC1(C)C2CC=C2C3CC(C)(C)C(O)C(OC(=O)C=Cc4ccccc4)C3(COC(=O)C(C)=CC)C(O)CC21C` (centres unmarked) [Tig—R—Cin—6], the Cytotoxicity activity result is “weak”.

Consider `CC=CC(=O)OC1C(OC(=O)C=CC)C2(COC(=O)C(C)=CC)C(O)CC3(C)C(=CCC4C5(C)CCC(O)C(C)(COC(=O)C(C)=CC)C5CCC43C)C2CC1(C)C` (centres unmarked) [Tig—R—Cro—1], for which the Cytotoxicity activity entry is “weak”.

For the compound `CC=CC(=O)OC1C(O)C2(COC(=O)C(C)=CC)C(O)CC3(C)C(=CCC4C5(C)CCC(O)C(C)(COC(=O)C(C)=CC)C5CCC43C)C2CC1(C)C` (centres unmarked) [Tig—R—Cro—2], the Cytotoxicity activity result is recorded as “moderate”.

As to `CC=CC(=O)OC1C(O)C(C)(C)CC2C3=CCC4C5(C)CCC(O)C(C)(COC(=O)C(C)=CC)C5CCC4(C)C3(C)CC(O)C21COC(=O)C(C)=CC` (centres unmarked) [Tig—R—Cro—3], the Cytotoxicity activity entry is “moderate”.

As to `CC=CC(=O)OC1CCC2(C)C(CCC3(C)C2CC=C2C4CC(C)(C)C(O)C(O)C4(COC(=O)C(C)=CC)C(O)CC23C)C1(C)COC(=O)C(C)=CC` (centres unmarked) [Tig—R—Cro—4], the Cytotoxicity activity entry is given as “moderate”.

As to `CC=CC(=O)OC1C(O)C2(COC(=O)C(C)=CC)C(O)CC3(C)C(=CCC4C5(C)CCC(OC(=O)C=CC)C(C)(COC(=O)C(C)=CC)C5CCC43C)C2CC1(C)C` (centres unmarked) [Tig—R—Cro—5], the Cytotoxicity activity result is given as “weak”.

In the case of `CC=CC(=O)OC1CCC2(C)C(CCC3(C)C2CC=C2C4CC(C)(C)C(O)C(OC(=O)C=CC)C4(COC(=O)C(C)=CC)C(O)CC23C)C1(C)COC(=O)C(C)=CC` (centres unmarked) [Tig—R—Cro—6], the Cytotoxicity activity result is on record as “weak”.

For the compound `CC=C(C)C(=O)OCC1(C)C(O)CCC2(C)C1CCC1(C)C2CC=C2C3CC(C)(C)C(OC(=O)C(CC)CC)C(OC(=O)C(CC)CC)C3(COC(=O)C(C)=CC)C(O)CC21C` (centres unmarked) [Tig—R—Eth—1], the Cytotoxicity activity entry was “weak”.

With `CC=C(C)C(=O)OCC1(C)C(O)CCC2(C)C1CCC1(C)C2CC=C2C3CC(C)(C)C(OC(=O)C(CC)CC)C(O)C3(COC(=O)C(C)=CC)C(O)CC21C` (centres unmarked) [Tig—R—Eth—2], the Cytotoxicity activity entry is “moderate”.

In the case of `CC=C(C)C(=O)OCC1(C)C(O)CCC2(C)C1CCC1(C)C2CC=C2C3CC(C)(C)C(O)C(OC(=O)C(CC)CC)C3(COC(=O)C(C)=CC)C(O)CC21C` (centres unmarked) [Tig—R—Eth—3], the Cytotoxicity activity entry is recorded as “moderate”.

For the compound `CC=C(C)C(=O)OCC1(C)C(OC(=O)C(CC)CC)CCC2(C)C1CCC1(C)C2CC=C2C3CC(C)(C)C(O)C(O)C3(COC(=O)C(C)=CC)C(O)CC21C` (centres unmarked) [Tig—R—Eth—4], the Cytotoxicity activity entry is reported as “moderate”.

In the case of `CC=C(C)C(=O)OCC1(C)C(OC(=O)C(CC)CC)CCC2(C)C1CCC1(C)C2CC=C2C3CC(C)(C)C(OC(=O)C(CC)CC)C(O)C3(COC(=O)C(C)=CC)C(O)CC21C` (centres unmarked) [Tig—R—Eth—5], the Cytotoxicity activity result was “weak”.

Turning to `CC=C(C)C(=O)OCC1(C)C(OC(=O)C(CC)CC)CCC2(C)C1CCC1(C)C2CC=C2C3CC(C)(C)C(O)C(OC(=O)C(CC)CC)C3(COC(=O)C(C)=CC)C(O)CC21C` (centres unmarked) [Tig—R—Eth—6], the Cytotoxicity activity result is “weak”.

On to `CC=C(C)C(=O)OCC1(C)C(O)CCC2(C)C1CCC1(C)C2CC=C2C3CC(C)(C)C(OC(=O)CCCCC)C(OC(=O)CCCCC)C3(COC(=O)C(C)=CC)C(O)CC21C` (centres unmarked) [Tig—R—Hex—1], for which the Cytotoxicity activity result is listed as “weak”.

Regarding `CC=C(C)C(=O)OCC1(C)C(O)CCC2(C)C1CCC1(C)C2CC=C2C3CC(C)(C)C(OC(=O)CCCCC)C(O)C3(COC(=O)C(C)=CC)C(O)CC21C` (centres unmarked) [Tig—R—Hex—2], the Cytotoxicity activity entry is “moderate”.
